Values quoted from earlier work, collected in patent US20020022649A1, “STABLE PHARMACEUTICAL FORMULATION” (priority 1998, published 2002).

Settings: centchroman as a racemate

## COc1ccc2c(c1)OC(C)(C)C(c1ccccc1)C2c1ccc(OCCN2CCCC2)cc1 (racemic) [centchroman, 3,4-trans-2,2-dimethyl-3-phenyl-4-[4-(2-pyrrolidin-1-yl)ethoxy)phenyl]-7-methoxychroman]
  cholesterol lowering, serum concentrations: significant decrease of the serum concentrations
